# In US20110269700A1, “GLUCOSIDE DERIVATIVES AND USES THEREOF” (NOVARTIS AG, priority 2008, published 2011):
# How the values were obtained:
# human SGLT1 = molecular target: T1, human SGLT1 (Homo sapiens, UniProt P13866); assay: SGLT1 assay: 14C-AMG uptake in CHO-K1 or HEK293 cells expressing hSGLT1; assay type: cell-based; details: n = 1-4
# T1 construct: expressed in transfected cells; host or cells: CHO-K1 or HEK293
# T1 sequence (P13866 1-664): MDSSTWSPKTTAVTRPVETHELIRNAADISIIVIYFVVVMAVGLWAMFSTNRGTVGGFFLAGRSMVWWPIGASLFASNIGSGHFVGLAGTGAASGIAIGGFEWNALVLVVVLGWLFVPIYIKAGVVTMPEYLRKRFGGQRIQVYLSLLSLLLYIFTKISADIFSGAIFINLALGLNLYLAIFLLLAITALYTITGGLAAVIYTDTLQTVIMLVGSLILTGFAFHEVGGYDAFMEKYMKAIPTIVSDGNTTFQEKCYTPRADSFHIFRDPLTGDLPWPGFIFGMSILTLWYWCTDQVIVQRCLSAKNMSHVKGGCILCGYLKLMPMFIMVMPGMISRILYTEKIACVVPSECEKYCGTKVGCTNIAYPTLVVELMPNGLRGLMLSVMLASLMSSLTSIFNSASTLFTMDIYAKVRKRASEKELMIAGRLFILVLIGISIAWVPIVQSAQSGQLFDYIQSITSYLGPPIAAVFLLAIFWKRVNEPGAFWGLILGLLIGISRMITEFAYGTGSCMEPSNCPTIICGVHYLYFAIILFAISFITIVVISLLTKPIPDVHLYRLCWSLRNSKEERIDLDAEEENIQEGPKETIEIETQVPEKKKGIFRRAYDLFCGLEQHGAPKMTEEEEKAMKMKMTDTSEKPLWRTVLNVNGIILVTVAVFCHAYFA
# Procedure: To determine human SGLT1 inhibitory activity, an analogous test was set up in which the cDNA for hSGLTI (Genbank Ace. No. NM000343) instead of hSGLT2 cDNA is expressed in CHO-K1 or HEK293 cells. The uptake assay buffer in the case of the hSGLT1 assay contains 10 mM HEPES, 5 mM Tris, 140 mM NaCl, 2 mM KCl, 1 mM CaCl2, and 1 mM MgCl2, pH 7.4 containing 0.5 mM of α-methyl-D-glucopyranoside (AMG), 10 μM of [^14C]-α-methyl-D-glucopyranoside and different inhibitor concentrations.
# [1] = molecular target: T2, human sodium glucose cotransporter 2 (Homo sapiens, UniProt P31639); assay: SGLT2 assay: 14C-AMG uptake in CHO-hSGLT2 or HEK-hSGLT2 cells; assay type: cell-based; details: n = 1-4
# T2 construct: expressed in transfected cells; host or cells: CHO-K1 (ATCC CCL-61) or HEK293 (ATCC CRL-1573), stably transfected with pZeoSV
# T2 sequence (P31639 1-672): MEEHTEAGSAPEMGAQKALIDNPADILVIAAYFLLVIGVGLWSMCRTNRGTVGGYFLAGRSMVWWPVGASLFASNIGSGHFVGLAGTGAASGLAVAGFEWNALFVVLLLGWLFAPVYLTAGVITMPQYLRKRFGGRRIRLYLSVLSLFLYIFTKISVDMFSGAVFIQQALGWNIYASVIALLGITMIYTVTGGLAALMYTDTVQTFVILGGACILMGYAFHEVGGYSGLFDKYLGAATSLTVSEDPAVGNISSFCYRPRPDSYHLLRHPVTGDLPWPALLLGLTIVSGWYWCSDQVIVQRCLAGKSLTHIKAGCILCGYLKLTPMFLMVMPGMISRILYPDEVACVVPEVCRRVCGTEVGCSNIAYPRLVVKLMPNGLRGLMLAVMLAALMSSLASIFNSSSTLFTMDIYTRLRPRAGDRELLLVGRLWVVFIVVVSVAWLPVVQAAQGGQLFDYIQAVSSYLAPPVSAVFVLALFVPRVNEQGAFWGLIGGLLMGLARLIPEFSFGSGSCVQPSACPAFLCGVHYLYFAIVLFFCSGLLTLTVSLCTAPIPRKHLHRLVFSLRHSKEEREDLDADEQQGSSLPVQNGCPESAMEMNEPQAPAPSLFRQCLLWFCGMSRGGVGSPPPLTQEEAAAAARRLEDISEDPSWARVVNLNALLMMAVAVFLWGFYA
# Procedure: These cell lines transport ^14C-labeled alpha-methyl-glucopyranoside (^14C-AMG, Amersham) into the interior of the cell in sodium-dependent manner.
# The SGLT-2 assay is carried out as follows: CHO-hSGLT2 cells are cultivated in Ham's F12 Medium (BioWhittaker) with 10% fetal calf serum and 250 μg/mL zeocin (Invitrogen), and HEK293-hSGLT2 cells are cultivated in DMEM medium with 10% fetal calf serum and 250 μg/mL zeocin (Invitrogen). The cells are detached from the culture flasks by washing twice with PBS and subsequently treating with trypsin/EDTA. After the addition of cell culture medium the cells are centrifuged, resuspended in culture medium and counted in a Casy cell counter. Then 40,000 cells per well are seeded into a white, 96-well plate coated with poly-D-lysine and incubated overnight at 37° C., 5% CO2. The cells are washed twice with 250 μl of assay buffer (Hanks Balanced Salt Solution, 137 mM NaCl, 5.4 mM KCl, 2.8 mM CaCl2, 1.2 mM MgSO4 and 10 mM HEPES (pH 7.4), 50 μg/mL of gentamycin). 250 μl of assay buffer and 5 μl of test compound are then added to each well and the plate is incubated for a further 15 minutes in the incubator. 5 μl of 10% DMSO are used as the negative control. The reaction is started by adding 5 μl of 14 C-AMG (0.05 μCi) to each well. After 2 hours' incubation at 37° C., 5% CO2, the cells are washed again with 250 μl of PBS ([…]) and then lysed by the addition of 25 μl of 0.1 N NaOH (5 min. at 37° C.). 200 μl of MicroScint20 (Packard) are added to each well and incubation is continued for a further 20 min at 37° C. After this incubation the radioactivity of the 14 C-AMG absorbed is measured in a Topcount (Packard) using a 14 C scintillation program.
Structure (SMILES),IC50 (human SGLT1),IC50 [1]
"CCOc1ccc(Cc2cc([C@@H]3O[C@H](Cn4nncc4CO)[C@@H](O)[C@H](O)[C@H]3O)ccc2Cl)cc1 [Example 9, (2S, 3R, 4R, 5S, 6R)-2-[4-Chloro-3-(4-ethoxy-benzyl)-phenyl]-6-(5-hydroxymethyl-[1,2,3]triazol-1-ylmethyl)-tetrahydro-pyran-3,4,5-triol]",> 10000 nM,94 nM
"CCOc1ccc(Cc2cc([C@@H]3O[C@H](Cn4cc(CO)nn4)[C@@H](O)[C@H](O)[C@H]3O)ccc2Cl)cc1 [Example 10, (2S, 3R, 4R, 5S, 6R)-2-[4-Chloro-3-(4-ethoxy-benzyl)-phenyl]-6-(4-hydroxymethyl-[1,2,3]triazol-1-ylmethyl)-tetrahydro-pyran-3,4,5-triol]",32000 nM,50 nM
"CCOc1ccc(Cc2cc([C@@H]3O[C@H](Cn4cc(C(N)=O)nn4)[C@@H](O)[C@H](O)[C@H]3O)ccc2Cl)cc1 [Example 12, 1-{(2R,3S,4R,5R,6S)-6-[4-Chloro-3-(4-ethoxy-benzyl)-phenyl]-3,4,5-trihydroxy-tetrahydro-pyran-2-ylmethyl}-1H-[1,2,3]triazole-4-carboxylic acid amide]",–,81 nM
"CCOc1ccc(Cc2cc([C@@H]3O[C@H](CNc4cccc(NC(C)=O)c4)[C@@H](O)[C@H](O)[C@H]3O)ccc2Cl)cc1 [Example 34, N-[3-({(2R,3S,4R,5R,6S)-6-[4-Chloro-3-(4-ethoxy-benzyl)-phenyl]-3,4,5-trihydroxy-tetrahydro-pyran-2-ylmethyl}-amino)-phenyl]-acetamide]",1500 nM,23 nM
"CCOc1ccc(Cc2cc([C@@H]3O[C@H](CN(C)c4cccc(C(=O)N5CCCC5)c4)[C@@H](O)[C@H](O)[C@H]3O)ccc2Cl)cc1 [Example 37, [3-({(2R,3S,4R,5R,6S)-6-[4-Chloro-3-(4-ethoxy-benzyl)-phenyl]-3,4,5-trihydroxy-tetrahydro-pyran-2-ylmethyl}-methyl-amino)-phenyl]-pyrrolidin-1-yl-methanone]",280 nM,10 nM
